Like-named read-outs stand apart in the source and are kept apart here.
Tests used:
hT2R3 = hT2R3 (Homo sapiens (Human), UniProt Q9NYW6); experiment: hT2R panel inhibition, transient HEK293 G16g44, agonist Chloroquine pH6.5 50 μM; format: cell-based; conditions: HEK293, compound at 25 μM; receptor activated to EC80 with the corresponding agonist; read-out: screening result against bitter receptor 3
Description: (§1) Specifically, in order to evaluate the inhibitory selectivity of the Compound C compound, this compound was tested against 22 human T2Rs which were deorphaned by Senomyx. These receptors and the bitter ligands that activate these human T2Rs are reported in earlier patent applications which are incorporated by reference herein. These 22 human T2Rs are hT2R1, 3, 4, 5, 7, 8, 9, 10, 13, 14, 16, 44, 51, 54, 55, 61, 63, 64, 65, 67, 71 and 75. The amino acid and nucleic acid sequences of all of these T2Rs may be found in these earlier patent applications. These human T2Rs were each individually transiently transfected into HEK293 cells that stably express the promiscuous G protein G16g44 and functional assays were effected using these receptors as disclosed in these same patent applications. […] The ligands were used at EC80 concentration levels. The list of bitter ligands utilized and the tested ligand concentrations are contained in Table 5 of this example.
(§2) Relating to the foregoing, FIG. 5 contains experimental results wherein Compound C was tested with different agonist compounds. The inhibition activity is represented by the reduction of receptor activity in the presence of Compound C. […] These 13 hT2Rs are hT2R3, 7, 10, 14, 16, 44, 51, 55, 61, 63, 64, 65, and 71.

hT2R64 = hT2R64 (Homo sapiens (Human), UniProt P59538); experiment: hT2R panel inhibition, transient HEK293 G16g44, agonist Aristolochic Acid 1 μM; format: cell-based; conditions: HEK293, compound at 25 μM; receptor activated to EC80 with the corresponding agonist; read-out: screening result against bitter receptor 64
hT2R64, sequence (P59538 whole entry): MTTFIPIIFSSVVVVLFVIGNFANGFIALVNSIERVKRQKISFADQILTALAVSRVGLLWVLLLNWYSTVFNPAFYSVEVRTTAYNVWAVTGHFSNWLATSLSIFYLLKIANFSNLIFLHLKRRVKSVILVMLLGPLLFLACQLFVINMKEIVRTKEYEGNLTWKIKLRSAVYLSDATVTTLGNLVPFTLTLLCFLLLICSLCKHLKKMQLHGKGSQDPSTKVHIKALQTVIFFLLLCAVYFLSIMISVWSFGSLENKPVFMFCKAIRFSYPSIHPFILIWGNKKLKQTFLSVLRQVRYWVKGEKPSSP
Description: as §1, §2

hT2R61 = hT2R61 (Homo sapiens (Human), UniProt P59537); experiment: hT2R panel inhibition, transient HEK293 G16g44, agonist Aristolochic Acid 25 nM; format: cell-based; conditions: HEK293, compound at 25 μM
hT2R61, sequence (P59537 whole entry): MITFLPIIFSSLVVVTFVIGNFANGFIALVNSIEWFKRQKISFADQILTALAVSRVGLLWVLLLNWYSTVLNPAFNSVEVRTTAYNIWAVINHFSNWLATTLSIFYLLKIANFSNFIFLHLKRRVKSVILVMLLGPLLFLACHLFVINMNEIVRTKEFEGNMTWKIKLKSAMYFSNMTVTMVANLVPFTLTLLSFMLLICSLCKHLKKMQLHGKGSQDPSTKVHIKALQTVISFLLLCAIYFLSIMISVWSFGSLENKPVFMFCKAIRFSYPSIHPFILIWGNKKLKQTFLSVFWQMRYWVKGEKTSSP
Description: as §1, §2

hT2R14 [1] = molecular target: T1, hT2R14 (Homo sapiens (Human), UniProt Q9NYV8); experiment: hT2R panel inhibition, transient HEK293 G16g44, agonist Aristolochic Acid 2 μM; format: cell-based; conditions: HEK293, compound at 25 μM
T1 sequence (Q9NYV8 whole entry): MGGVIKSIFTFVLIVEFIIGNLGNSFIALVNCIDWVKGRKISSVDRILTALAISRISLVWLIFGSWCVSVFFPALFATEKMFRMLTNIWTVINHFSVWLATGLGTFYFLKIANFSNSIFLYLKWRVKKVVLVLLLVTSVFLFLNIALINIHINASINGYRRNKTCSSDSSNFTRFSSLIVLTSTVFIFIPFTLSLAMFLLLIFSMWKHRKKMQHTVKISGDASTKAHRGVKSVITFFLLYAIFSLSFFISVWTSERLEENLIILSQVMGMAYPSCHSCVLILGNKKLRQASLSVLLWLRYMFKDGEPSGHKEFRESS
Description: as §1

hT2R63 = experiment: hT2R panel inhibition, transient HEK293 G16g44, agonist Caffeine 1 mM or Andrographolide 100 μM; format: cell-based, human; conditions: compound at 25 μM; for screening result against bitter receptor 63: receptor activated to EC80 with the corresponding agonist; for inhibition of bitter receptor 63: receptor activated to EC80 with agonist
Description: as §1, §2

hT2R44 = experiment: hT2R panel inhibition, transient HEK293 G16g44, agonist Denatonium 0.5 μM; format: cell-based, human; conditions: compound at 25 μM; for screening result against bitter receptor 44: receptor activated to EC80 with the corresponding agonist
Description: as §1, §2

hT2R71 = hT2R71 (Homo sapiens (Human), UniProt P59536); experiment: hT2R panel inhibition, transient HEK293 G16g44, agonist Picric Acid 10 μM; format: cell-based; conditions: HEK293, compound at 25 μM; receptor activated to EC80 with the corresponding agonist; read-out: screening result against bitter receptor 71
hT2R71, sequence (P59536 whole entry): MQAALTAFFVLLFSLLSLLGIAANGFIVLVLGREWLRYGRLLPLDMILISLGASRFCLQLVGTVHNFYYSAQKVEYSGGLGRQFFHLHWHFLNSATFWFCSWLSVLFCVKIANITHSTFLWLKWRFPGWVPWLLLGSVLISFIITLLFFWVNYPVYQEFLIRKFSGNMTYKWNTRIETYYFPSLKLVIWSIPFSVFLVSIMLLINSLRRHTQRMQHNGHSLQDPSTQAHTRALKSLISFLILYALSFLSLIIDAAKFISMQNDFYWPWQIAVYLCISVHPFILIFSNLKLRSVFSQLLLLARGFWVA
Description: as §1, §2

hT2R5 = hT2R5 (Homo sapiens (Human), UniProt Q9NYW4); experiment: hT2R panel inhibition, transient HEK293 G16g44, agonist Picoline 10 mM; format: cell-based; conditions: HEK293, compound at 25 μM; receptor activated to EC80 with the corresponding agonist; read-out: screening result against bitter receptor 5
hT2R5, sequence (Q9NYW4 whole entry): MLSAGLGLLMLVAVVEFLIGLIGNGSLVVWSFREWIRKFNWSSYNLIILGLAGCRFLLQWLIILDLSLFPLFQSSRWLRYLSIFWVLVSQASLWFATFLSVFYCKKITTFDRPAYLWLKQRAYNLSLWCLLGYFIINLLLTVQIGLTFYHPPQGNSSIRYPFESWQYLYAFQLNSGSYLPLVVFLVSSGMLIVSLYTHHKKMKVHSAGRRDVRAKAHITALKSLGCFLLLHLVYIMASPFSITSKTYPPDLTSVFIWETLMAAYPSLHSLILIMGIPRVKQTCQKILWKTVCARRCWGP
Description: as §1, §2

hT2R55 = experiment: hT2R panel inhibition, transient HEK293 G16g44, agonist Cinchonine 150 μM; format: cell-based, human; conditions: compound at 25 μM; receptor activated to EC80 with the corresponding agonist
Description: as §1, §2

hT2R7 = hT2R7 (Homo sapiens (Human), UniProt Q9NYW3); experiment: hT2R panel inhibition, transient HEK293 G16g44, agonist Chloroquine pH6.5 10 mM; format: cell-based; conditions: HEK293, compound at 25 μM; receptor activated to EC80 with agonist; read-out: inhibition of bitter receptor 7
hT2R7, sequence (Q9NYW3 whole entry): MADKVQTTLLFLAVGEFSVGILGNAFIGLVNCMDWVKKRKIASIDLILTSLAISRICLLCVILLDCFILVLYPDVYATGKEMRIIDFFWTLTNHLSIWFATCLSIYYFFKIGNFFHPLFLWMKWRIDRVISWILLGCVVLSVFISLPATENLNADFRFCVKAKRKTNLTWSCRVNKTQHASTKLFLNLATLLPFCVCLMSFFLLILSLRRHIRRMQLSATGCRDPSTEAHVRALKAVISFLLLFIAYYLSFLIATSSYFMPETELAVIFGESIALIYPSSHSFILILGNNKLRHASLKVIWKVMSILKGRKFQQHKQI
Description: as §1, §2

hT2R16 = hT2R16 (Homo sapiens (Human), UniProt Q9NYV7); experiment: hT2R panel inhibition, transient HEK293 G16g44, agonist Salicin 1 mM; format: cell-based; conditions: HEK293, compound at 25 μM; receptor activated to EC80 with the corresponding agonist; read-out: screening result against bitter receptor 16
hT2R16, sequence (Q9NYV7 whole entry): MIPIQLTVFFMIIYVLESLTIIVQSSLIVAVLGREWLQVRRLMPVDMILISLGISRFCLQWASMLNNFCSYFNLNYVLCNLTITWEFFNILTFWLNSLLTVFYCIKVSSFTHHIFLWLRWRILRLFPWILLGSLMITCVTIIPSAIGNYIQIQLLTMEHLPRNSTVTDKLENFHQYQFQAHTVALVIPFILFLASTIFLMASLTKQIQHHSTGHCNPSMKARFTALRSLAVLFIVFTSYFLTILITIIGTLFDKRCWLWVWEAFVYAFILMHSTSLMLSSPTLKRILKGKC
Description: as §1, §2

hT2R14 [2] = molecular target: T1, hT2R14; experiment: hT2R14 antagonist high-throughput FLIPR assay, stable cell line with G16g44, agonist aristolochic acid; format: cell-based
Procedure, shortened: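 HEK293 cells stably expressing hT2R14 with chimeric G16g44 were stimulated with aristolochic acid (3 μM), giving 70-80% of maximal receptor activity. Test compounds were added together with the agonist, and antagonism was read as fluorescent calcium signal on FLIPR.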

hT2R10 = hT2R10 (Homo sapiens (Human), UniProt Q9NYW0); experiment: hT2R panel inhibition, transient HEK293 G16g44, agonist Strychnine 50 μM; format: cell-based; conditions: HEK293, read-out: screening result against bitter receptor 10, compound at 25 μM; receptor activated to EC80 with the corresponding agonist
hT2R10, sequence (Q9NYW0 whole entry): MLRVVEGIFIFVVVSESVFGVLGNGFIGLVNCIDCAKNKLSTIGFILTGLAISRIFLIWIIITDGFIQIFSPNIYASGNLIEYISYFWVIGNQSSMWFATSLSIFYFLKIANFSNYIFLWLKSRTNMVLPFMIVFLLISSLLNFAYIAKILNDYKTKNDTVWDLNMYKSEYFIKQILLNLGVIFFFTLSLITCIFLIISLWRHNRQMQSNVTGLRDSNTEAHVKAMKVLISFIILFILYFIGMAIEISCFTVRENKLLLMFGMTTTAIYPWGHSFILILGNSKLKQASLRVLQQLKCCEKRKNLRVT
Description: as §1, §2

[3] = receptor activated to EC80 with the corresponding agonist, read-out: screening result against bitter receptor 61
[4] = receptor activated to EC80 with the corresponding agonist, read-out: screening result against bitter receptor 14
[5] = receptor activated to EC80 with agonist, read-out: inhibition of bitter receptor 14

hT2R3, sequence (Q9NYW6 whole entry): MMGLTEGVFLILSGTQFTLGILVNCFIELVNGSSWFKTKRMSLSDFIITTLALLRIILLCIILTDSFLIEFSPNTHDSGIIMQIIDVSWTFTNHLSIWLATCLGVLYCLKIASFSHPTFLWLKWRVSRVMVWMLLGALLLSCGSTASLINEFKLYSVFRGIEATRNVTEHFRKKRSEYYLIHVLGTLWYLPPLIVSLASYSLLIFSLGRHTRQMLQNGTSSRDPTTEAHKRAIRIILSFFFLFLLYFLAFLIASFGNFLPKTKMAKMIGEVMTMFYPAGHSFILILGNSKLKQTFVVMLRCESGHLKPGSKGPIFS

## COc1ccc(CNS(=O)(=O)c2ccc(C(=O)O)cc2)cc1 [Example 5-56, 4-(N-(4-methoxybenzyl)sulfamoyl)benzoic acid]
hT2R3
  inhibition at 25 µM: 20 to 40%
hT2R64
  inhibition at 25 µM: 20 to 40%

## COc1ccc(CN(Cc2ccncc2)S(=O)(=O)c2ccc(C(=O)O)cc2)cc1 [Example 5-86, 4-(N-(4-methoxybenzyl)-N-(pyridin-4-ylmethyl)sulfamoyl)benzoic acid]
hT2R61; [3]
  inhibition at 25 µM: 60 to 80%
hT2R14 [1]; [4]
  inhibition at 25 µM: 20 to 40%
hT2R63
  screening result against bitter receptor 63: +++ (60% to 80% inhibition = +++)
hT2R44
  screening result against bitter receptor 44: + (20% to 40% inhibition = +)

## COc1ccc(CN(Cc2ccccc2)C(=O)Nc2ccc(C(=O)O)cc2)cc1 [Example 5-94, 4-(3-benzyl-3-(4-methoxybenzyl)ureido)benzoic acid]
hT2R3
  inhibition at 25 µM: 20 to 40%
hT2R61; [3]
  inhibition at 25 µM: 20 to 40%
hT2R64
  inhibition at 25 µM: 60 to 80%
hT2R71
  inhibition at 25 µM: 20 to 40%
hT2R44
  screening result against bitter receptor 44: ++ (40% to 60% inhibition = ++)

## COc1ccc(CN(Cc2cccs2)S(=O)(=O)c2ccc(C(=O)O)cc2)cc1 [Example 5-61, 4-(N-(4-methoxybenzyl)-N-(thiophen-2-ylmethyl)sulfamoyl)benzoic acid]
hT2R5
  inhibition at 25 µM: 20 to 40%
hT2R61; [3]
  inhibition at 25 µM: 40 to 60%
hT2R64
  inhibition at 25 µM: 20 to 40%
hT2R71
  inhibition at 25 µM: 20 to 40%
hT2R63
  screening result against bitter receptor 63: ++++ (80% or greater inhibition = ++++)
hT2R55
  screening result against bitter receptor 55: + (20% to 40% inhibition = +)

## COc1ccc(CN(Cc2ccccc2)C(=O)c2ccc(C(=O)O)cc2)cc1 [Example 5-49, 4-(benzyl(4-methoxybenzyl)carbamoyl)benzoic acid]
hT2R3
  inhibition at 25 µM: 20 to 40%
hT2R61; [3]
  inhibition at 25 µM: 60 to 80%
hT2R64
  inhibition at 25 µM: 40 to 60%
hT2R71
  inhibition at 25 µM: 20 to 40%
hT2R63
  screening result against bitter receptor 63: + (20% to 40% inhibition = +)
hT2R44
  screening result against bitter receptor 44: + (20% to 40% inhibition = +)
hT2R55
  screening result against bitter receptor 55: ++++ (80% or greater inhibition = ++++)

## COc1ccc(CN(Cc2ccc(C(=O)O)cc2)S(=O)(=O)c2ccc(C(=O)O)cc2)cc1 [Example 5-38, 4-((4-carboxy-N-(4-methoxybenzyl)phenylsulfonamido)methyl)-benzoic acid]
hT2R61; [3]
  inhibition at 25 µM: > 80%
hT2R64
  inhibition at 25 µM: 20 to 40%
hT2R71
  inhibition at 25 µM: 20 to 40%
hT2R63
  screening result against bitter receptor 63: ++++ (80% or greater inhibition = ++++)

## CN(Cc1ccccc1)S(=O)(=O)c1ccc(C(=O)O)cc1 [Example 5-55, 4-(N-benzyl-N-methylsulfamoyl)benzoic acid]
hT2R5
  inhibition at 25 µM: 20 to 40%
hT2R3
  inhibition at 25 µM: 20 to 40%
hT2R61; [3]
  inhibition at 25 µM: 20 to 40%
hT2R14 [1]; [4]
  inhibition at 25 µM: > 80%
hT2R64
  inhibition at 25 µM: 40 to 60%
hT2R63
  screening result against bitter receptor 63: ++++ (80% or greater inhibition = ++++)
hT2R55
  screening result against bitter receptor 55: ++ (40% to 60% inhibition = ++)

## COc1ccc(CN(Cc2cccc(C)c2)S(=O)(=O)c2ccc(C(=O)O)cc2)cc1 [Example 5-65, 4-(N-(4-methoxybenzyl)-N-(3-methylbenzyl)sulfamoyl)benzoic acid]
hT2R3
  inhibition at 25 µM: 20 to 40%

## Cc1c(F)cccc1NS(=O)(=O)c1ccc2c(c1)c(=O)n(C)c(=O)n2C [Example 6-7, N-(3-fluoro-2-methylphenyl)-1,3-dimethyl-2,4-dioxo-1,2,3,4-tetrahydroquinazoline-6-sulfonamide]
hT2R14 [1]; [5]
  inhibition at 25 µM: 40 to 60%
hT2R7
  inhibition at 25 µM: 20 to 40%
hT2R63
  inhibition of bitter receptor 63: + (20% to 40% inhibition = +)

## COc1ccc(C(NS(=O)(=O)c2ccc(C(=O)O)cc2)c2ccccc2)cc1 (stereo not drawn) [Example 5-97, 4-(N-((4-methoxyphenyl)(phenyl)methyl)sulfamoyl) benzoic acid]
hT2R61; [3]
  inhibition at 25 µM: 20 to 40%
hT2R14 [1]; [4]
  inhibition at 25 µM: 20 to 40%
hT2R64
  inhibition at 25 µM: 20 to 40%
hT2R63
  screening result against bitter receptor 63: +++ (60% to 80% inhibition = +++)
hT2R44
  screening result against bitter receptor 44: + (20% to 40% inhibition = +)
hT2R16
  inhibition at 25 µM: 60 to 80%

## Cc1ccccc1NS(=O)(=O)c1ccc2c(c1)c(=O)n(C)c(=O)n2C [Example 6-9, 1,3-dimethyl-2,4-dioxo-N-o-tolyl-1,2,3,4-tetrahydroquinazoline-6-sulfonamide]
hT2R61; receptor activated to EC80 with agonist, read-out: inhibition of bitter receptor 61
  inhibition at 25 µM: 20 to 40%
hT2R14 [1]; [5]
  inhibition at 25 µM: > 80%
hT2R14 [2]; Table D, read-out: hT2R14 IC50
  IC50: 1.73 µM
hT2R7
  inhibition at 25 µM: 40 to 60%
hT2R63
  inhibition of bitter receptor 63: + (20% to 40% inhibition = +)
hT2R44; receptor activated to EC80 with agonist
  inhibition of bitter receptor 44: + (20% to 40% inhibition = +)

## O=C(O)c1ccc(CN(Cc2ccc(F)cc2)S(=O)(=O)c2ccc(O)cc2)cc1 [Example 5-107, 4-((N-(4-fluorobenzyl)-4-hydroxyphenylsulfonamido)methyl)benzoic acid]
hT2R61; [3]
  inhibition at 25 µM: > 80%
hT2R14 [1]; [4]
  inhibition at 25 µM: 60 to 80%
hT2R64
  inhibition at 25 µM: 60 to 80%
hT2R71
  inhibition at 25 µM: 20 to 40%
hT2R63
  screening result against bitter receptor 63: +++ (60% to 80% inhibition = +++)
hT2R44
  screening result against bitter receptor 44: + (20% to 40% inhibition = +)
hT2R55
  screening result against bitter receptor 55: + (20% to 40% inhibition = +)

## COc1ccc(CN(Cc2ccc(C(=O)O)cc2)S(=O)(=O)c2ccc(O)cc2)cc1 [Example 5-44, 4-((4-hydroxy-N-(4-methoxybenzyl)phenylsulfonamido)methyl)-benzoic acid]
hT2R3
  inhibition at 25 µM: 20 to 40%
hT2R61; [3]
  inhibition at 25 µM: > 80%
hT2R14 [1]; [4]
  inhibition at 25 µM: > 80%
hT2R64
  inhibition at 25 µM: 40 to 60%
hT2R14 [2]; read-out: IC50 on hT2R14 bitter receptor
  IC50: 3.43 µM
hT2R71
  inhibition at 25 µM: 40 to 60%
hT2R63
  screening result against bitter receptor 63: ++++ (80% or greater inhibition = ++++)
hT2R44
  screening result against bitter receptor 44: ++ (40% to 60% inhibition = ++)
hT2R55
  screening result against bitter receptor 55: + (20% to 40% inhibition = +)

## COc1ccc(CN(Cc2ccccc2)S(=O)(=O)CCC(=O)O)cc1 [Example 5-57, 3-(N-benzyl-N-(4-methoxybenzyl)sulfamoyl)propanoic acid]
hT2R3
  inhibition at 25 µM: 20 to 40%
hT2R61; [3]
  inhibition at 25 µM: > 80%
hT2R64
  inhibition at 25 µM: 40 to 60%
hT2R10
  inhibition at 25 µM: 20 to 40%
hT2R55
  screening result against bitter receptor 55: +++ (60% to 80% inhibition = +++)

## COc1ccc(CN(Cc2ccccc2)S(=O)(=O)c2ccc(CC(=O)O)cc2)cc1 [Example 5-47, 2-(4-(N-benzyl-N-(4-methoxybenzyl)sulfamoyl)phenyl)acetic acid]
hT2R3
  inhibition at 25 µM: 20 to 40%
hT2R61; [3]
  inhibition at 25 µM: 60 to 80%
hT2R71
  inhibition at 25 µM: 20 to 40%
hT2R63
  screening result against bitter receptor 63: + (20% to 40% inhibition = +)
hT2R44
  screening result against bitter receptor 44: + (20% to 40% inhibition = +)

## COc1ccc(CN(Cc2cccc(C(=O)O)c2)S(=O)(=O)c2ccc(C(=O)O)cc2)cc1 [Example 5-82, 3-((4-carboxy-N-(4-methoxybenzyl)phenylsulfonamido)methyl) benzoic acid]
hT2R61; [3]
  inhibition at 25 µM: > 80%
hT2R64
  inhibition at 25 µM: 20 to 40%
hT2R71
  inhibition at 25 µM: 20 to 40%
hT2R63
  screening result against bitter receptor 63: ++++ (80% or greater inhibition = ++++)
